Patent US8951976B2, “Progression inhibitor for disease attributed to abnormal accumulation of liver fat” (Kissei Pharmaceutical Co., Ltd., priority 2004, dated 2015)
Blank lines part the entries; values can stand above or below the molecule they belong to.

Experiments:
[1] = cited from earlier work
SGLT2 = biological target: T1, SGLT2 (Mus musculus, UniProt Q923I7); assay: Test to confirm inhibitory effect on accumulation of liver lipids in KKAy mice bearing fatty liver; format: in vivo, KKA^y mice
T1 construct: Using KKA^y mice (KKAy/Ta Jcl, CLEA Japan, Inc.) as experimental animals; tissue CLEA Japan, Inc. KKAy/Ta Jcl; host or cells: living KKAy mice (whole animal; SGLT2 acts in kidney)
T1 sequence (Q923I7 1-670): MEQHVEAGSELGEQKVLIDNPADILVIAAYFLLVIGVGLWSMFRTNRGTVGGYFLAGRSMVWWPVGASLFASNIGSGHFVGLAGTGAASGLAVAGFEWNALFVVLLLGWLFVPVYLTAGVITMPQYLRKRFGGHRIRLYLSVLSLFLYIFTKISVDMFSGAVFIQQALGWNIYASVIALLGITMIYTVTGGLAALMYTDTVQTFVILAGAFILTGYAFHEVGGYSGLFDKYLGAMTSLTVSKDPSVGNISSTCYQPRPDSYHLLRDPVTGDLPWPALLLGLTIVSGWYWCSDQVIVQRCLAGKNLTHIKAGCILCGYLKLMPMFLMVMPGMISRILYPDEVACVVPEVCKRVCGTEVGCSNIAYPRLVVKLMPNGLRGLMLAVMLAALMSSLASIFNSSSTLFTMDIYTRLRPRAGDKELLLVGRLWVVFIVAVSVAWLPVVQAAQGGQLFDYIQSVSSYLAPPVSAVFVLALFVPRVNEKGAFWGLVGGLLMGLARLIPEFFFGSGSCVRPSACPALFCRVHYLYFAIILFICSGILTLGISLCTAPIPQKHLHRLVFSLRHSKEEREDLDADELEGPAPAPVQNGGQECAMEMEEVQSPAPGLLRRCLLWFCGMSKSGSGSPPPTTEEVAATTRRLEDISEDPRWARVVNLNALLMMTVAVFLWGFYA
Procedure: Using KKA^y mice (KKAy/Ta Jcl, CLEA Japan, Inc.) as experimental animals, inhibitory effects on accumulation of lipids in liver based on SGLT2 inhibitory effects were evaluated. KKA^y mice bearing fatty liver were prepared as follows.
Female 10-week-old KKA^y mice were bred preparatorily for 4 weeks. During preparatory breeding until 4 days before grouping, the mice were fed on a pellet CE-2 diet for laboratory animal (CLEA Japan, Inc.) under free feeding. From 4 days before grouping, the food was changed to a powdered CE-2 diet for laboratory animal (CLEA Japan, Inc.). At the age of 14 weeks, body weight, blood glucose level and plasma alanine aminotransferase level (ALT) were measured for grouping. The mice were grouped (5 animals in each group) so that in any of these three laboratory values no significant difference was observed between the two groups. In the second group, the mice were fed on a powdered CE-2 diet for laboratory animal (CLEA Japan, Inc.) containing 1000 ppm of 2-(4-methoxybenzyl)phenyl 6-O-ethoxycarbonyl-β-D-glucopyranoside (hereinafter referred to as Compound A) as a SGLT2 inhibitor for 11 days, and then triglyceride contents in liver were measured.
Method of measurement of liver triglyceride content was described as follows. • 1) Ice-cold saline (Otsuka Pharmaceutical Co., Ltd.) was added to liver in the proportion of 4 mL of ice-cold saline to 1 g of the liver, and then a homogenized suspension was prepared in a pestle homogenizer. • 2) To 100 μL of the suspension 1), 800 μL of Folch reagent (chloroform:methanol=2:1) was added and mixed vigorously, and total lipids was extracted. • 3) The mixture 2) was centrifuged (3000 rpm, for 10 min, at room temperature) using a cooled centrifuge (KUBOTA8900, KUBOTA Corporation). • 4) The lower layer after centrifugation in 3) was collected and transferred to another container, and that is referred to as Solution (A). • 5) To the upper layer after centrifugation in 3), 150 μL of Folch reagent was added and mixed vigorously, and centrifugation by the operation identical to that in 3) was performed. […]

SMILES: CCOC(=O)C(C)(C)Oc1ccc(Cl)cc1 [clofibrate]
lipid accumulation in liver as a side effect ([1]; Patent Reference 22, while it lowers neutral fat or cholesterol in blood): causes lipid accumulation in liver

lipid accumulation in liver (SGLT2; administration to KKA^y mice bearing fatty liver, compared to drug-untreated mice): significantly suppressed | Liver triglyceride content (SGLT2; female KKA^y mice bearing fatty liver, diet containing 1000 ppm for 11 days, mean ± standard error of the mean, * significant (5% or less) vs drug-untreated group): 25.4 ± 3.6* mg/g liver | increase of lipid accumulative amount in liver (SGLT2; orally administered to rat (so in the source), in comparison with no administration): inhibited significantly
SMILES: CCOC(=O)OC[C@H]1O[C@@H](Oc2ccccc2Cc2ccc(OC)cc2)[C@H](O)[C@@H](O)[C@@H]1O [Compound A, 2-(4-methoxybenzyl)phenyl 6-O-ethoxycarbonyl-β-D-glucopyranoside]

SMILES: CCCCNC(=O)NS(=O)(=O)c1ccc(C)cc1 [tolbutamide]
suppressive effects on lipid accumulation in liver ([1]; non-Patent Reference 7): does not exhibit suppressive effects
